Measurements taken from patent publication US20140255432A1, “SILVESTROL, SILVESTROL ANALOGS AND USES THEREOF” (priority 2011, published 2014).

Key:
[1] = Pharmacokinetics work in mice; assay type: in vivo
EBNA2, EBNA3C, BZLF1 = assay: Immunoblot of other EBV proteins in LCL; assay type: cell-based, Epstein-Barr virus; details: FIG. 3C
Method: (§1) Cells were harvested and lysed as described (Alinari 2011). Following collection of whole cell lysates, equal amounts of protein were resolved by SDS-PAGE and transferred onto a PVDF membrane (Millipore, Billerica, Mass.). Membrane was probed overnight at 4° C. with β-actin, pSTAT1, pSTAT3, STAT1, STAT3, pAkt, Akt (Cell Signaling Technology, Danvers, Mass.), or LMP-1 (DakoCytomation, Carpinteria, Calif.). After incubation with HRP-conjugated secondary antibody (Cell Signaling Technology), protein was detected with SuperSignal West Pico Chemiluminescent Substrate (Pierce, Rockford, Ill.).
(§2) Whole cell protein levels of LMP-1 was evaluated by immunoblot 72 hr after treating with a single dose (10 nM) of silvestrol in seven LCL lines (FIG. 3A). β-actin was included as a loading control. In FIG. 3B, LCL were incubated 24, 72, and 120 hr in the presence of 10 nM silvestrol or vehicle control. Whole cell lysates were immunoblotted for LMP-1. Results are representative of 3 LCL lines. […] Decreases in other latent gene products involved with EBV-driven B cell transformation were observed as well. In FIG. 3D, LCL were incubated as in FIG. 3B and immunoblotted for STAT1, STAT3, AKT and NF-κB p65.

LMP-1 = assay: Immunoblot of LMP-1 in LCL; assay type: cell-based, Epstein-Barr virus
Method: as §1, §2

[2] = tested on: EBV-positive lymphoblastoid cell lines (LCL); assay: Apoptosis/viability by annexin/PI flow cytometry; assay type: cell-based, human; details: 2-50 nM; 24, 72, 120 hr; p=0.006 averaged over doses and time points
Method: Cells from irradiated or non-irradiated co-cultures were co-stained with LIVE/DEAD cell stain (Invitrogen, Grand Island, N.Y.) and hu-CD3-APC and either hu-CD4-PE, hu-CD-8-PE, hu-CD19-PE (BD Biosciences, San Diego, Calif.), or hu-CD56-PE (Beckman Coulter, Brea, Calif.). Live events were gathered by gating on cells negative for the LIVE/DEAD stain on an FC500 cytometer (Beckman Coulter). Cell viability was also measured by flow cytometry at 24, 72, and 120 hr using annexin-V-FITC and propidium iodide (PI) according to the manufacturer's instructions (BD Biosciences).
The direct anti-tumor activity of silvestrol in leukemia and lymphoma models has been document (Hwang 2004; Bordeleau 2008; Cencic 2009; Lucas 2009 Alinari 2011; Saradhi 2011) as well as silvestrol's increased cytotoxicity to malignant B cells compared to normal blood lymphocytes (Lucas 2009). However, activity of silvestrol has not previously been described in spontaneous EBV-transformed cell lines. Silvestrol's activity in fully transformed EBV-positive LCL derived from tumors of SCID mice engrafted with PBMC from EBV-seropositive donors was observed. Six of these EBV-LCL lines were plated in the presence of low concentrations of silvestrol (2-50 nM), and apoptosis (viability assessed by annexin/PI flow cytometry) (FIG. 2A) and proliferation (MTS assay) (FIG. 2B) were evaluated at 24, 72, and 120 hr. […]

interleukin-6 = assay: Real-time RT-PCR for NF-κB targets in LCL; assay type: cell-based, human; details: 10 nM in LCL (FIG. 45)
Text: FIG. 41 presents data regarding NK cytotoxicity of K562 cells. […] FIG. 42 presents data regarding the cytotoxicity of LCLs pretreated with BZLF 1. […] BZLF1 antigen pulsed LCLs promoted enhanced killing in untreated and silvestrol-treated CTLs. FIG. 43 presents data relating to CD4 IFNgamma release with LCL pretreated with BZLF1. […] FIG. 44 presents data relating to CD4 IFNgamma release with LCL pretreated with BZLF 1. […] FIG. 45 presents data relating to interleukin-6 induction by silvestrol. […] FIG. 46 presents data relating to a change in LMP-1 expression following silvestrol treatment. […] Three cell lines were examined on days 1, 3, and 5 following treatment. FIG. 47 presents data relating to a change in EBNA1 expression following silvestrol treatment. Three cell lines were examined on days 1, 3, and 5 following treatment.

NK cells against LCL = assay: Antibody-dependent cell-mediated cytotoxicity (ADCC) assay of NK cells with rituximab; assay type: cell-based, human
Method: Non-radioactive flow cytometry-based cytotoxicity assays have been described previously (Godoy-Ramirez 2005; Helguera 2011). Co-cultures of PBMC and irradiated LCL were grown in the presence or absence of silvestrol for 14 d and collected. Fresh autologous LCL cells were stained with 200 nM carboxyfluorescein diacetate succinimidyl ester (CFSE) (CellTrace™, Invitrogen) for 15 min at 25° C. prior to being mixed with effectors from the irradiated co-cultures at an effector:target (E:T) ratio of 20:1 for 4 hr at 37° C. After the incubation, cells were stained with 7-aminoactinomycin D (7AAD) (BD Biosciences, San Diego, Calif.) and washed. Cytotoxicity was measured by gating on the CFSE-positive events and measuring the 7AAD-positive cells. (See FIGS. 31 and 32). For antibody-dependent cell-mediated cytotoxicity (ADCC) assays the same technique was used; however, the co-cultured effectors were natural killer (NK) cell-enriched and were incubated in the presence or absence of 5 μg/mL rituximab or herceptin (negative control) (Genentech, Inc., South San Francisco, Calif.) for 4 hr at 37° C.
Next, antibody-dependent cell-mediated cytotoxicity (ADCC) assays were utilized to measure the innate immune response of NK cells to LCL in the presence of silvestrol. […] Fresh CFSE-labeled LCL targets and autologous NK cells were incubated with the monoclonal antibodies rituximab (anti-CD20, expressed on LCL) or herceptin (anti-HER2, not expressed on immune cells). After 4 hr, ADCC was evaluated using CFSE and 7-AAD staining as described above. Specifically, cytotoxicity was measured by CFSE^+/7AAD^+ events. Data are shown relative to the positive control (effectors+targets+ritux) and are the averages of three individual experiments. Bars show −/+ standard deviation.
To determine the acute effect of silvestrol on ADCC, fresh (non-autologous) NK cells were obtained from enriched leukocyte products, incubated 18 hr with or without 10 nM silvestrol, then washed and mixed with CFSE-stained LCL. […]

COC(=O)[C@H]1[C@@H](O)[C@@]2(O)c3c(OC)cc(O[C@@H]4O[C@@H]([C@H](O)CO)CO[C@H]4OC)cc3O[C@@]2(c2ccc(OC)cc2)[C@@H]1c1ccccc1 [silvestrol]
concentration attainable in vivo [1]: 10 nM | EBNA2 and EBNA3C proteins (EBNA2, EBNA3C, BZLF1): affected | expression of BZLF1 (EBNA2, EBNA3C, BZLF1): did not affect | LMP1 protein levels (LMP-1; 10 nM, 5 days, cells from seven donors (FIG. 3A)): reduced LMP1 protein levels | LMP-1 levels over time (LMP-1; single 10 nM dose, 24, 72, 120 hr (FIG. 3B)): fall incrementally as a function of time | apoptosis vs. untreated control [2]: Moderate but significant activity | interleukin-6 expression (interleukin-6): induced | ADCC activity of NK cells incubated in media vs. silvestrol (NK cells against LCL; 10 nM, 24 hr pretreatment, DC9 LCLs (FIG. 19)): equivalent ADCC activity | ADCC activity of freshly isolated (non-autologous) NK cells (NK cells against LCL; 18 hr pre-incubation with 10 nM, p=0.854): no observable effect | rituximab-dependent cytotoxic activity of NK cells, expanded with vs. without silvestrol (NK cells against LCL; autologous NK cells, 10 nM for 14 days, p=0.838): similar
